The results in this text go back to article PMC6691761, “Potential multifunctional agents with anti-hepatoma and anti-inflammation properties by inhibiting NF-кB activation” (Journal of Enzyme Inhibition and Medicinal Chemistry, 2019).

The structures appear in SMILES notation.

Assay [1] concerns NF-κB p65 nuclear translocation in TNF-α-stimulated HepG2 cells. Nature of the assay: NF-κB p65 nuclear translocation, immunofluorescence, HepG2. The assay is classed as cell-based, human. The following applies: HepG2, TNF-α 10 ng/mL, 4.0 μM. As for the experimental part:
(§1) RAW264.7 cells were pretreated in 96-well plates with LPS (1 μg/mL) for 15 min and then treated with 96 for 2 h. Similarly, HepG2 cells were pretreated with TNF-α (10 ng/mL) for 15 min and then treated with 96 for 4 h. The cells were fixed with 2% paraformaldehyde for 15 min at 37 °C and permeabilized using 0.1% Triton X-100 for 10 min at RT. After blockage with 3% BSA for 30 min, the cells were incubated with anti-NF-κB p65 antibody (NOVUS BIOLOGICALS, Colorado, USA) at 4 °C overnight. After washing, the anti-mouse Alexa488-conjugated secondary antibody (Jackson Immuno Research, West Grove, PA) was incubated for 30 min at RT. After washed with PBS, the cells were incubated in 4-6-diamidino-2-phenyindole (DAPI; Sigma, St. Louis, MO) for 15 min in the dark at RT. The cell images were simultaneously viewed using a microscopy system in High Throughput Screen (Operetta, PerkinElmer, Waltham, MA).

Assay [2] concerns BAX expression in HepG2 cells. Nature of the assay: Western blot, BAX expression in HepG2 cells. The assay is classed as cell-based, human. The following applies: HepG2, 1.0, 2.0, and 4.0 μM. The procedure: (§2) The HepG2 cells were treated with BAP 96 at different concentrations (1.0, 2.0, and 4.0 µM) for 3 h, and washed twice by PBS. The cells were lysed and the extracted proteins of cell lysates were separated by 10% SDS-PAGE gel electrophoresis, then transferred onto polyvinylidene fluorides membranes. The membranes were probed with antibodies and visualized using an enhanced chemiluminescence (ECL) detection kit.
(In general: In western blotting, separated proteins are transferred to a membrane and probed.)

The test system of assay [3] is BAX expression in HepG2 xenografts. Nature of the assay: Western blot, BAX in HepG2 xenografts. The class given is in vivo, Balb/c nude mice. The following applies: 0.2, 1.0 and 5.0 mg/kg. The procedure: (§3) The HepG2 cells xenografts were established using the Balb/c nude mice (female, 7-week-old, 17–19 g, n = 30) (Shanghai Laboratory Animal Center, Shanghai Shi, China) were used to investigate the anti-hepatoma effect of 96. Animal experiments were reviewed and approved by the Binzhou Medical University Experimental Animal Committee. Briefly, HepG2 cells (1 × 10^7/0.2 ml PBS/mouse) were inoculated subcutaneously. Three days after the inoculation, the mice were randomly divided into five groups: the saline treated group (Control), 96 (0.2 mg/kg) group, 96 (1.0 mg/kg) treated group, 96 (5.0 mg/kg) treated group, and DOX (1.0 mg/kg) treated group. 96 were dissolved in saline containing 1% of DMSO and administered intraperitoneally every 2 d for 20 days. DOX was also administered intraperitoneally every 2 d for 20 d. The body weight and HepG2 xenografts volumes were recorded from the day of treatment, and xenografts volumes were calculated using the equation: tumour volume = length×(width)[2]×π/6. At the end of the experiment, mice were sacrificed and the xenografts were obtained for western blotting, HE staining and immunohistochemistry staining.
(§4) Western blotting was performed to detect the expression of Bcl-2, Bax and C-caspase-3 in HepG2 xenografts. Fresh HepG2 xenografts tissues were lysed and the obtained proteins were processed as the protein obtained from the HepG2 cells.

For assay [4], the system named is human cervical carcinoma cells (HeLa). Put plainly: Cytotoxicity, MTT assay, HeLa. The assay is classed as cell-based. An outline of the steps: (§5)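 Read-out is optical density at 570 nm after DMSO solubilisation of formazan from a 4 h, 37 °C MTT step. Before that, cells plated at 1 × 10^4 per well had 24 h attachment followed by 24 h drug exposure (0.01–50 μg/mL, 0.1% DMSO).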

The subject of assay [5] is p-IκBα in TNF-α-stimulated HepG2 cells. Put plainly: TNF-α-stimulated phosphorylation of IκBα in HepG2 cells. The following applies: HepG2, 1.0, 2.0, and 4.0 μM. The assay is classed as cell-based, human. The procedure: as §2
It is known that NF-κB has been implicated in the crossroad of inflammation and cancer[25]^,[26]. In our previous study, some BAPs (such as 23 and 67) could inhibit NF-κB activation by inhibiting the phosphorylation of NF-κB (P65) and IκB[13]^,[14]. Herein, it is an urgent to resolve whether 96 has the same mechanism of action as 23 and 67. Therefore, the RAW264.7 cells were pretreated with LPS, and then treated with different concentrations (1.0, 2.0, 4.0 μM) of 96. […] Similarly, the HepG2 cells were pretreated with TNF-α, then treated with different concentrations (1.0, 2.0, and 4.0 μM) of 96.

A further assay has as its system HepG2 cells. Put plainly: Apoptosis assay, annexin V staining, flow cytometry. The following applies: 2.0 μM, 24 h. The assay is classed as cell-based, human. As for the experimental part: After treated with BAP 96 (1.0, 2.0, and 4.0 μM) and DMSO for 24 h. HepG2 cells were washed and added with 500 μL of Binding Buffer, 5 μL of Annexin V-EGFP and 5 μL of Propidiumlodide and mix (BD Biosciences, San Jose, CA) according to the manufacturer’s instruction. The mixed solution was gently vortexed and incubated in the dark at RT for 15 min. The results were detected by flow cytometry (BD FACS Calibur, San Jose, CA) within 1 h.
On the technique in general: A flow cytometer gives signals particle by particle.

The test system of assay [6] is C-caspase-3 expression in HepG2 cells. Put plainly: Western blot, C-caspase-3 expression in HepG2 cells. The class given is cell-based, human. The following applies: HepG2, 1.0, 2.0, and 4.0 μM. As for the experimental part:
as §2

In assay [7] the test system is C-caspase-3 expression in HepG2 xenografts. Nature of the assay: Western blot, C-caspase-3 in HepG2 xenografts. The assay is classed as in vivo, Balb/c nude mice. The following applies: 0.2, 1.0 and 5.0 mg/kg. As for the experimental part:
as §3, §4

The subject of assay [8] is NF-κB p65 nuclear translocation in LPS-stimulated RAW264.7 cells. Nature of the assay: NF-κB p65 nuclear translocation, immunofluorescence, RAW264.7. The assay is classed as cell-based. The following applies: RAW264.7, LPS 1.0 μg/mL, 4.0 μM. The procedure:
as §1

Assay [9] deals with human colon cancer cells (HCT116). Put plainly: Cytotoxicity, MTT assay, HCT116. The class given is cell-based. An outline of the steps:
as §5
On the technique in general: Tetrazolium dyes change colour on reduction, which living cells bring about.

Where [10] appears, read: quotient of IC50 towards LO2 cells.

Broadly, the IC50 is the midpoint of a concentration-inhibition curve. Lower therefore signals higher potency.

With `CN1CC(=Cc2cccc(N=Cc3cc(Br)ccc3O)c2)C(=O)C(=Cc2ccccc2F)C1` [Compound 96], the p65 nuclear translocation entry in assay [1] and in assay [8] was “prevented the p65 nuclear translocation” throughout. In addition, the “Expression of pro-apoptotic protein BAX” value in assay [2] is “dose-dependently increased”. The “Expression of BAX in HepG2 xenografts” value in assay [3] is “significantly increased in a dose-dependent manner”. Moreover, the IC50 in assay [4] (Homo sapiens, HeLa, MTT, 24 h) was 2.1 ± 0.8 µM; in assay [9] (Homo sapiens, HCT-116, MTT, 24 h), 2.5 ± 0.1 µM. Also, the “HeLa SI (selectivity index)” value in assay [4] (setting [10]) was determined as 9.5. The “Phosphorylation of IκBα induced by TNF-α” value in assay [5] is listed as “dose-dependent downward trend”. The “Apoptosis rate of HepG2 cells” value with HepG2 cells is reported as 24.4%. Moreover, in [6], the “Expression of C-caspase-3” value is “dose-dependently increased”. Also, the “Expression of C-caspase-3 in HepG2 xenografts” value in [7] is given as “significantly increased in a dose-dependent manner”. In [9] (setting [10]), the “HCT116 SI (selectivity index)” value came out at 8.0.
